According to patent US20240285497A1, “METHOD FOR EVALUATING AN ABILITY OF A TEST SAMPLE TO TRIGGER A FOREIGN BODY REACTION IN THE SKIN, A METHOD FOR SCREENING A SUBSTANCE HAVING AN ABILITY TO INHIBIT A FOREIGN BODY REACTION IN THE SKIN, AND AN AGENT FOR INHIBITING A FOREIGN BODY REACTION IN THE SKIN” (priority 2021, published 2024):
Marks after values point to notes of the source that are not given here.

Columns and labels:
[1] = system: human liver cancer-derived cell line HepG2 cells; settings: cited from earlier work
[2] = system: TIMP-1 (Tissue Inhibitor of Matrix Metalloprotease-1) mRNA; experiment: TIMP-1 mRNA expression in HaCaT cells, quantitative PCR; assay type: cell-based, human; settings: 100 μM, 24 hours
Procedure: Specifically, the mRNA expression of TIMP-1 in the HaCaT cells treated with Fraglide-1 was evaluated by performing quantitative PCR using cDNA obtained in Experiment 4-1. The procedure of quantitative PCR was the same as described in Experiment 4-1 except that the primers shown in below Table 5 were used.
(§1) In FIG. 14, the results obtained for each sample were shown in relative values normalized by setting the expression level of TIMP-1 in the HaCaT cells incubated for 24 hours in DMEM medium not containing Fraglide-1 (i.e., the non-treated HaCaT cells) as 1. The results shown in FIG. 14 are the mean of values obtained from three independent experiments, and the error bars represent standard deviation (SD).
On the other hand, as comparison, the similar evaluation was performed for retinoic acid and nicotinamide, which are known as active ingredients of anti-wrinkle agents, using cDNA obtained in Experiment 4-2. The procedure for quantitative PCR was the same as already described in Experiment 3-1, except that the primers shown in Table 5 were used.
as §1, with “15,” for “14,”, “either retinoic acid and nicotinic acid amide” for “Fraglide-1”, “15” for “14”

[3] = system: xenobiotic responsive element (XRE); experiment: Screening: inhibition of FICZ-triggered reporter protein expression in XRE-NLuc::HaCaT cells; assay type: cell-based, human; settings: FICZ 5,000 nM, 24 hours
Procedure: First, in the same manner as in Experiment 1-2, XRE-NLuc::HaCaT cells were suspended in a DMEM medium at the density of 1×10^5 cell/mL, and 100 μL of the thus obtained suspension was added to each well of white 96-well plates (Thermo Fisher Scientific, MA, U.S.A.; Catalogue No.: 136102) so that a number of the cells in each well was 10,000 cells/well. In accordance with the conventional method, the cells were incubated for 24 hours at 37° C. and 5% CO2. Thereafter, the DMEM medium was removed, and 100 μL of a new DMEM medium containing […] of FICZ, which was confirmed to activate the expression of the reporter protein in Experiment 1-2, and a candidate substance at a predetermined concentration. Meanwhile, reference samples were also prepared by adding 100 μL of a DMEM medium containing 5,000 nM of FICZ but not containing candidate substances. In this experiment, 5-hydroxy-4-phenyl-2(5H)butenolide (hereinafter also referred to as “Fraglide-1” or “FG1”) and, as a positive control, cinnamaldehyde, which is known to have an effect of inhibiting a foreign body reaction in which a xenobiotic responsive element (XRE) is involved, were used as test substances. After incubation for 24 hours at 37° C. and 5% CO2, the expression level of the reporter protein (luminescence intensity) and the viable cell count were measured in accordance with the method described in Experiment 1-2, and the expression of the reporter protein per unit number of viable cells was obtained. The inhibition rate (Inhibition (%)) of the expression of the reporter protein exerted by each candidate substance was calculated in accordance with the following formula.
In the above formula, (Reporter Expression)FICZ indicates the expression of the reporter protein per unit number of viable cells obtained from the reference samples: i.e., the cells incubated in the medium containing 5,000 nM of FICZ but not containing candidate substances. Meanwhile, (Reporter Expression)FICZ+TEST SAMPLE indicates the expression of the reporter protein per unit number of viable cells obtained from the cells incubated in the medium containing 5,000 nM of FICZ and a candidate substance. The results shown in FIG. 6 were the mean obtained from three independent experiments. The error bars represent the standard error (SE).

[4] = system: matrix metalloprotease 9 (MMP9) mRNA; experiment: MMP9 mRNA expression in HaCaT cells contacted with test substance, quantitative PCR; assay type: cell-based, human; settings: HaCaT cells, 24 hours
Procedure: (§2) In this experiment, the effect of Fraglide-1 on the expression of MMP9 in the level of mRNA was examined first. Specifically, HaCaT cells were treated with Fraglide-1 in the same manner as described in Experiment 3-1 except that HaCaT cells were incubated for 24 hours in the medium containing 0 μM, 1 μM, 10 μM, and 100 μM of Fraglide-1 instead of being incubated for 24 hours in the medium containing both FICZ and Fraglide-1. The total RNA was then extracted, cDNA was prepared, and the quantitative PCR was performed using the obtained cDNA. Herein, the procedure of the quantitative PCR was the same as described in Experiment 3-1 except that the primers shown in below Table 4 were used. In this experiment, the expression of MMP2 mRNA was also quantified in addition to MMP9 mRNA. MMP2 is known as a MMP which is not transcriptionally regulated by a xenobiotic responsive element (XRE).
(§3) In FIG. 9 and FIG. 10, the results obtained for each sample were shown as a relative value, with the mRNA expression level of MMP9 or MMP2 in the HaCaT cells incubated for 24 hours in DMEM medium without FICZ (i.e., the non-treated HaCaT cells) set to 1. The results shown in FIG. 9 and FIG. 10 were the mean obtained from three independent experiments. The error bars represent the standard deviation (SD).
Next, experiments were performed to inhibit MMP9 and MMP2 in HaCaT cells using retinoic acid (CAS RN: 302-79-4) and nicotinamide (CAS RN: 98-92-0), which are known to be substances having anti-wrinkle effect. Briefly, HaCaT cells were made in contact with retinoic acid and nicotinamide in the same manner as in Experiment 4-1 except that retinoic acid and nicotinamide were used instead of Fraglide-1. Then, the total RNA was extracted, cDNA was prepared, and the quantitative PCR was carried out using the obtained cDNA.
as §3, with “FIG. 12” for “FIG. 9”, “FIG. 13,” for “FIG. 10,”, “medium containing neither retinoic acid nor nicotinamide” for “medium without FICZ”, “FIG. 13” for “FIG. 10”

[5] = system: matrix metalloprotease 2 (MMP2) mRNA; experiment: MMP2 mRNA expression in HaCaT cells contacted with test substance, quantitative PCR; assay type: cell-based, human; settings: 1 μM, 10 μM and 100 μM, HaCaT cells, 24 hours
Procedure: as §2, with “(XRE). […]” for “(XRE).”
Next, experiments were performed to inhibit MMP9 and MMP2 in HaCaT cells using retinoic acid (CAS RN: 302-79-4) and nicotinamide (CAS RN: 98-92-0), which are known to be substances having anti-wrinkle effect. […] Then, the total RNA was extracted, cDNA was prepared, and the quantitative PCR was carried out using the obtained cDNA. […]

| Compound | Literature Value Maximum Effective concentration Max. Induction [1] | expression level of TIMP-1 compared to non-treated HaCaT cells [2] | expression level of TIMP-1 mRNA vs non-treated HaCaT cells (in words) ([2]; Fraglide-1 1 μM, 10 μM, retinoic acid / nicotinic acid amide at predetermined concentrations) | Inhibition (%) of expression of the reporter protein triggered by FICZ ([3]; 12.5 μM test substance) [%] | Inhibition (%) of expression of the reporter protein triggered by FICZ ([3]; 25 μM test substance) [%] | Inhibition (%) of expression of the reporter protein triggered by FICZ ([3]; 50 μM test substance) [%] | decrease of expression level of MMP9 mRNA compared to medium without Fraglide-1 ([4]; 1 μM) | decrease of expression level of MMP9 mRNA compared to medium without Fraglide-1 ([4]; 10 μM) [%] | decrease of expression level of MMP9 mRNA compared to medium without Fraglide-1 ([4]; 100 μM) [%] | MMP2 mRNA expression [5] |
| --- | --- | --- | --- | --- | --- | --- | --- | --- | --- | --- |
| 6-formylindolo[3,2-b] carbazole [FICZ] | 1** μM | – | – | – | – | – | – | – | – | – |
| O=C1C=C(c2ccccc2)C(O)O1 (stereo not shown) [Fraglide-1, 5-hydroxy-4-phenyl-2(5H)butenolide] | – | about 4 fold | concentration-dependent increase | 58 | 68 | 83 | approximately 42% | ~52 | ~80 | no decrease in the mRNA expression was observed |
